The values below come from US11970450B2, “Multi-component crystals of an orally available HIF prolyl hydroxylase inhibitor” (Sandoz AG, priority 2018, dated 2024).

Where two headings read alike, the source gives them in different places.

A short description of series [1]: Thermal stability by differential scanning calorimetry (DSC). It counts as physicochemical. Conditions: for DSC: thermal events / phase transformations before melting / Thermal stability: 25 to 250° C. at 10 K/min; for DSC: thermal events / phase transformations before melting: nitrogen purge; for Physically stable toward temperature stress: no thermal events in DSC until start to melt at: DSC 10 K/min; for Thermal stability: Table 7 summary, temperature stress, DSC and TGA. How it is done: DSC was performed on a Mettler Polymer DSC R instrument. […] Nitrogen (purge rate 50 mL/min) was used as purge gas.

The nature of series [2]: Thermogravimetric analysis (TGA) mass loss on heating. It counts as physicochemical. As to conditions: 10 K/min. The protocol:
TGA was performed on a Mettler TGA/DSC 1 instrument. The samples (9.53 mg Form 1 and 8.16 mg Form 2, 8.12 mg 1,4-dioxane solvate) were heated in a 100 microliter aluminum pan closed with an aluminum lid. The lid was automatically pierced at the beginning of the measurement. The samples were heated from 25 to 250° C. at a rate of 10 K/min. Nitrogen (purge rate 50 mL/min) was used as purge gas.
Also, no significant mass loss is visible in the TGA curves of Form 1 and Form 2 until they melt.

The conditions of series [3]: cited from earlier work.
Setting [4] is: up to a temperature of about 170° C.

Turning to `O=C(O)CNC(=O)c1ncc(-c2cccc(Cl)c2)cc1O` [Vadadustat L-proline form 2, vadadustat L-proline], the “DSC: thermal events / phase transformations before melting” value in series [1] (listed as vadadustat L-proline form 2) was “undergoes no phase transformations but is stable until it melts”. For the same molecule, the “Physically stable toward temperature stress: no thermal events in DSC until start to melt at” value in series [1] (listed as Form 2) is around 178 °C. For the same molecule, the TGA mass loss entry in series [2] (up to a temperature of about 180° C.) was “about 0.15 weight %”.

Take `O=C(O)CNC(=O)c1ncc(-c2cccc(Cl)c2)cc1O` [Vadadustat hydrate]: the Thermal stability result in series [3] (Table 7 summary, hydrate of WO 2018/108101 A1, temperature stress) was “dehydration below 100 °C”. In series [3] (background statement on hydrate CS2 of WO 2018/108101 A1), the “Physical stability upon temperature stress” value was “physically unstable upon temperature stress”.

Take `O=C(O)CNC(=O)c1ncc(-c2cccc(Cl)c2)cc1O` [Vadadustat L-proline form 1, vadadustat L-proline]: the “DSC: thermal events / phase transformations before melting” value in series [1] (listed as vadadustat L-proline form 1) is listed as “undergoes no desolvation or phase transformations but is stable until it melts”. Moreover, in series [1] (listed as Form 1), the “Physically stable toward temperature stress: no thermal events in DSC until start to melt at” value is “about 170 °C”. Moreover, the Thermal stability result in series [1] is “physically stable until melting at”. Also, the TGA mass loss entry in series [2] (setting [4]) is “about 0.20 weight %”.

On to `C1COCCO1.O=C(O)CNC(=O)c1ncc(-c2cccc(Cl)c2)cc1O` [Vadadustat 1,4-dioxane solvate, reference compound], for which the “DSC onset of first broad endothermic peak (release of 1,4-dioxane from the crystal structure)” value in series [1] (10 K/min) is “about 78 °C”. Also, the Thermal stability entry in series [1] is “desolvation below 100 °C”. In addition, the “Temperature at which TGA mass loss starts” value in series [2] is “about 40 °C”. Further, the TGA mass loss result in series [2] (setting [4]) is given as “about 19 weight %”.
